Laboratory results from paper PMC3961306, “Comparison of the Cancer Gene Targeting and Biochemical Selectivities of All Targeted Kinase Inhibitors Approved for Clinical Use” (PLoS ONE, 2014).

Assays:
Assay in all cases: Kinase profiling in a biochemical assay panel (mobility shift assays and ELISA), %-inhibition at 1 μM; selectivity entropy
[1] = target: T1, panel of more than 300 wild-type and mutant kinases (313 kinase panel) (Homo sapiens, UniProt Q96BR1)
T1 sequence (Q96BR1 1-496): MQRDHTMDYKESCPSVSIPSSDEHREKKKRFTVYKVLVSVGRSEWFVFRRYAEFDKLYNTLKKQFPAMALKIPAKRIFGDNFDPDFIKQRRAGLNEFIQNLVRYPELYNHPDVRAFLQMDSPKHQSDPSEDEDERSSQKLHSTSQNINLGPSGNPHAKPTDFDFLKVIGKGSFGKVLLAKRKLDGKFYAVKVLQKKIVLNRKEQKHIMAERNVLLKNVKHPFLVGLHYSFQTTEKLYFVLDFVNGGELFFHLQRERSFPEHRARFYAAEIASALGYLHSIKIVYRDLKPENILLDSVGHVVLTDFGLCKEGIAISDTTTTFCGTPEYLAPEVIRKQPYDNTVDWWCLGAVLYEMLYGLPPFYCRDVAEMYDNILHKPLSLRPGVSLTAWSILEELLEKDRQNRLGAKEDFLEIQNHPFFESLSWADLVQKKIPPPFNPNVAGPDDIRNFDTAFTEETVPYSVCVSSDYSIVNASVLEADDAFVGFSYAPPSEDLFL

[2] = target: panel of more than 300 wild-type and mutant kinases (313 kinase panel) (Homo sapiens, UniProt P17252)
[3] = target: panel of more than 300 wild-type and mutant kinases (313 kinase panel) (Homo sapiens, UniProt P53667)
[4] = target: panel of more than 300 wild-type and mutant kinases (313 kinase panel) (Homo sapiens, UniProt P09769)
[5] = target: panel of more than 300 wild-type and mutant kinases (313 kinase panel) (Homo sapiens, UniProt P22607, K650E)
[6] = target: panel of more than 300 wild-type and mutant kinases (313 kinase panel) (Homo sapiens, UniProt P27448)
[7] = target: T2, panel of more than 300 wild-type and mutant kinases (313 kinase panel) (Homo sapiens, UniProt P51813)
T2 sequence (P51813 1-675): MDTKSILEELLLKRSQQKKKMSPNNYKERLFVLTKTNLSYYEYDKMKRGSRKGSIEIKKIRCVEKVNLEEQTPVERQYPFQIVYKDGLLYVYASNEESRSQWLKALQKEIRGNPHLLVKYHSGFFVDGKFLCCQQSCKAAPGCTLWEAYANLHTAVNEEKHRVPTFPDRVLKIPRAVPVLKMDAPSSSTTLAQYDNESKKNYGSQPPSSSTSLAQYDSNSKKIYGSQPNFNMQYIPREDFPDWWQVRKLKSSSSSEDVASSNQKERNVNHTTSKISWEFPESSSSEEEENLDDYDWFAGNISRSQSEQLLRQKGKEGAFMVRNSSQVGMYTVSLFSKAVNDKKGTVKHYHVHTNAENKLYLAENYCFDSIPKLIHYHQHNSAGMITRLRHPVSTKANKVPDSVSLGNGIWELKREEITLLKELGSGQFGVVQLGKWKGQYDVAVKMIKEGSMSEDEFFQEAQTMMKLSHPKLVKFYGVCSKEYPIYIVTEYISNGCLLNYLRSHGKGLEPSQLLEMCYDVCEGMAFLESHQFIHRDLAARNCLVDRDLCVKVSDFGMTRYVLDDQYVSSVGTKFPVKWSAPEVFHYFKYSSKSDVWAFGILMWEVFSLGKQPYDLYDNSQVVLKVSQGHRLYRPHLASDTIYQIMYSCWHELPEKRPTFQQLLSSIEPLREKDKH

[8] = target: panel of more than 300 wild-type and mutant kinases (313 kinase panel) (Homo sapiens, UniProt Q9P0L2)
[9] = target: panel of more than 300 wild-type and mutant kinases (313 kinase panel) (Homo sapiens, UniProt Q13557)
[10] = target: panel of more than 300 wild-type and mutant kinases (313 kinase panel) (Homo sapiens, UniProt P10721, T670I)
[11] = target: panel of more than 300 wild-type and mutant kinases (313 kinase panel) (Homo sapiens, UniProt P48730)
[12] = kinase FGFR3(K650E), compound at 1 μM
[13] = kinase KIT(T670I), compound at 1 μM

Chain of panel of more than 300 wild-type and mutant kinases (313 kinase panel) (Homo sapiens, UniProt Q9P0L2) (Q9P0L2 whole entry, change not shown): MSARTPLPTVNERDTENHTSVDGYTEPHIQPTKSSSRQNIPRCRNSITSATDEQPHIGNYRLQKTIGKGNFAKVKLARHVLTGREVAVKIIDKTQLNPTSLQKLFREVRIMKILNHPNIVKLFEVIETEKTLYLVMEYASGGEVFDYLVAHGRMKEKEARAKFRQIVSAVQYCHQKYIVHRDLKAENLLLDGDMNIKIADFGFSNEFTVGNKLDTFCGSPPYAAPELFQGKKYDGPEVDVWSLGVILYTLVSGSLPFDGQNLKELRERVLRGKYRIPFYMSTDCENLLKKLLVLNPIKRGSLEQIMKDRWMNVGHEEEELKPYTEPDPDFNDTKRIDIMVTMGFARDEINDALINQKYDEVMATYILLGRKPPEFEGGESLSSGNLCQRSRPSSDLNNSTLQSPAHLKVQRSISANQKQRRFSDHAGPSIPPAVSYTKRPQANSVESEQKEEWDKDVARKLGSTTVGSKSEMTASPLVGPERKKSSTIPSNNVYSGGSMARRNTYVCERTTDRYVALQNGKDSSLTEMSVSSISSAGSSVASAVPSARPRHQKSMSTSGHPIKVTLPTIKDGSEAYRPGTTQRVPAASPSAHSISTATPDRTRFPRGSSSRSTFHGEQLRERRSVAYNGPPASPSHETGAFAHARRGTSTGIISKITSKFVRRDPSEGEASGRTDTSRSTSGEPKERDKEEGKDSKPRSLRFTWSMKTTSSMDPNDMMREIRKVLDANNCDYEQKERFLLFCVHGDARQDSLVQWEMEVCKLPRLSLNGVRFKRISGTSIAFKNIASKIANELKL
Chain of panel of more than 300 wild-type and mutant kinases (313 kinase panel) (Homo sapiens, UniProt P27448) (P27448 whole entry, change not shown): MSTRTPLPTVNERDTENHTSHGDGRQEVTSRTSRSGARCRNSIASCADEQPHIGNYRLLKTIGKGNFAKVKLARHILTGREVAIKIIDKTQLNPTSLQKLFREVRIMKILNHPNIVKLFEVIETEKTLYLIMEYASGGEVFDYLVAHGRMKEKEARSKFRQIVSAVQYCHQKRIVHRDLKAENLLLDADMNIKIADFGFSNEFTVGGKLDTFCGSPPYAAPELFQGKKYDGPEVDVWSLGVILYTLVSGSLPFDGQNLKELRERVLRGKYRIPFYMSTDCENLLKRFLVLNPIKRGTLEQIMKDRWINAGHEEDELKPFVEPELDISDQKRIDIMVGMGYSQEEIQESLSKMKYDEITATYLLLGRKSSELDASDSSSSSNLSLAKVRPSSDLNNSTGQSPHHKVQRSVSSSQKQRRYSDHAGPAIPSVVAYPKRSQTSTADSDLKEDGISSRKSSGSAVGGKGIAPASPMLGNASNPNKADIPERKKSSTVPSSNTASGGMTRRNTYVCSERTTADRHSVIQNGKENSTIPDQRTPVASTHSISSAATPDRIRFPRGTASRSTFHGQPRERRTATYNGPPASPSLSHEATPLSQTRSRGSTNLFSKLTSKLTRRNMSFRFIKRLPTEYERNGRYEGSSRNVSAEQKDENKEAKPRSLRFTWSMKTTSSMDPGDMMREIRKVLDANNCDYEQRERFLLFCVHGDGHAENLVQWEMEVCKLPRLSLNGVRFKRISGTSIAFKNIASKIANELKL
Chain of panel of more than 300 wild-type and mutant kinases (313 kinase panel) (Homo sapiens, UniProt Q13557) (Q13557 whole entry, stated change not applied): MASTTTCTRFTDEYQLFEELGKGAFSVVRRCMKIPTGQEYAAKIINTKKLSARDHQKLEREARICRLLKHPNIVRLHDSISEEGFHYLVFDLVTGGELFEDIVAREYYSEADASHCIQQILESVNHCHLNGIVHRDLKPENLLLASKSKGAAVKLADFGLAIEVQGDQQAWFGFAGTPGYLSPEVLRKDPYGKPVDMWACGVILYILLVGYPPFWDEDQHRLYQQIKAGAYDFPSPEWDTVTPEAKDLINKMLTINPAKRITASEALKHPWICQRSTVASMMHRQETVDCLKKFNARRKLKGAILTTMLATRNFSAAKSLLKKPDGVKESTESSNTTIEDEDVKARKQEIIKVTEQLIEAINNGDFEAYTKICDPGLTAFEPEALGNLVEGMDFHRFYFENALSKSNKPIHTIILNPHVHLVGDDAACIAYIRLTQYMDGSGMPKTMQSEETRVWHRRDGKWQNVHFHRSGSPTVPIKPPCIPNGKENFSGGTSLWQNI
Chain of panel of more than 300 wild-type and mutant kinases (313 kinase panel) (Homo sapiens, UniProt P22607, K650E) (P22607 23-806 K650E): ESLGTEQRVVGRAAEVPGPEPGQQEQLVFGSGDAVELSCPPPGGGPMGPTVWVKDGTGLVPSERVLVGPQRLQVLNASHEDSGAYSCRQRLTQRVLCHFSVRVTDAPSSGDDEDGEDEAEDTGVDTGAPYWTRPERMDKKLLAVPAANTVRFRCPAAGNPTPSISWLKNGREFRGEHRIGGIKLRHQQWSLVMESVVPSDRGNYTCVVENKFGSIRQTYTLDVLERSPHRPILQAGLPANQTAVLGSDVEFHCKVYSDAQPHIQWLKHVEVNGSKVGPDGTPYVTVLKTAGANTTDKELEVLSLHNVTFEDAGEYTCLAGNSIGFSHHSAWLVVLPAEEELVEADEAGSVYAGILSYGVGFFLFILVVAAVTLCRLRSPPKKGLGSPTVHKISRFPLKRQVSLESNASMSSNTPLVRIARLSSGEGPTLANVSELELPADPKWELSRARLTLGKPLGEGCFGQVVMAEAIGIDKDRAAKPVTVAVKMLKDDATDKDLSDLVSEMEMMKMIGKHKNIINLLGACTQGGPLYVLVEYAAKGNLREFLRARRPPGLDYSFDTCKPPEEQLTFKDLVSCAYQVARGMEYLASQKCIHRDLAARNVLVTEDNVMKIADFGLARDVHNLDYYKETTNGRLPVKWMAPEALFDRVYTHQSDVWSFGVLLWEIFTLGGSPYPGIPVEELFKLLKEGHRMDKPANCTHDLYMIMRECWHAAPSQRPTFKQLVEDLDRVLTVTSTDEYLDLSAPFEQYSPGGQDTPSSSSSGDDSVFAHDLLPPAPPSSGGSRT
Chain of panel of more than 300 wild-type and mutant kinases (313 kinase panel) (Homo sapiens, UniProt P10721, T670I) (P10721 26-976 T670I): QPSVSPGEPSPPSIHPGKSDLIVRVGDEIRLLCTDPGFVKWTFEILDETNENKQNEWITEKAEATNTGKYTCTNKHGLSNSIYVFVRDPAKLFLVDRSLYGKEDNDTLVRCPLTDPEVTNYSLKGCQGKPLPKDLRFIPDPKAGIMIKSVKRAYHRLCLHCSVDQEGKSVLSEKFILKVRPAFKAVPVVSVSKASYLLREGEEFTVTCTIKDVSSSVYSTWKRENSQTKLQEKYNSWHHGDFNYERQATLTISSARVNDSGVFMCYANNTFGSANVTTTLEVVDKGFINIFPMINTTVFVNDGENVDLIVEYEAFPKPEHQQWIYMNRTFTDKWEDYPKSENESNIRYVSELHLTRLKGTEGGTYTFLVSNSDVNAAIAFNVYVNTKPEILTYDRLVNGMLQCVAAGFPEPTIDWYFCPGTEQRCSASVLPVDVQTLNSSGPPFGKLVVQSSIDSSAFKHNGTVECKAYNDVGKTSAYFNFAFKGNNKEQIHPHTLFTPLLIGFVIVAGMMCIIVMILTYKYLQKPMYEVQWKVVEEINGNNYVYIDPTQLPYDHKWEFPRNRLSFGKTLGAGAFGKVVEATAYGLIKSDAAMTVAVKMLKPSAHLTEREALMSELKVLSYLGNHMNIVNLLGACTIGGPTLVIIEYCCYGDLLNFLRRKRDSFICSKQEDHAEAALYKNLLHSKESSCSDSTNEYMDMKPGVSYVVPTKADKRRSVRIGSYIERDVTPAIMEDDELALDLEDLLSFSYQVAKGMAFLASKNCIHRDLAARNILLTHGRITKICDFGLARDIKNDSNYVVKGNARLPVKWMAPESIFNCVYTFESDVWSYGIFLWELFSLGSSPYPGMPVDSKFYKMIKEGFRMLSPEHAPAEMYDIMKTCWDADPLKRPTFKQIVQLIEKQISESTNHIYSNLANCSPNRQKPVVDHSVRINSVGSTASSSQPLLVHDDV

SMILES | %-inhibition of SGK3 ([1]; kinase SGK3, 1 μM) [%] | %-inhibition of PKCα ([2]; kinase PKCα, 1 μM) [%] | %-inhibition of LIMK1 ([3]; kinase LIMK1, compound at 1 μM) [%] | %-inhibition of FGR ([4]; kinase FGR, compound at 1 μM) [%] | %-inhibition of FGFR3(K650E) [5, 12] [%] | %-inhibition of MARK3 ([6]; kinase MARK3, compound at 1 μM) [%] | %-inhibition, BMX ([7]; kinase BMX, 1 μM compound) [%] | %-inhibition of MARK1 ([8]; kinase MARK1, compound at 1 μM) [%] | %-inhibition, CaMK2δ ([9]; kinase CaMK2δ, 1 μM compound) [%] | %-inhibition of KIT(T670I) [10, 13] [%] | %-inhibition, CK1δ ([11]; kinase CK1δ, 1 μM compound) [%] | further results
Cc1ccc(C(=O)Nc2ccc(CN3CCN(C)CC3)c(C(F)(F)F)c2)cc1C#Cc1cnc2cccnn12 [ponatinib] | -1.1 | -3.29 | 68 | 101 | 101 |  |  |  |  |  |  | 
CC(C)(C)c1nc(-c2cccc(NS(=O)(=O)c3c(F)cccc3F)c2F)c(-c2ccnc(N)n2)s1 [dabrafenib] | 0.0854 |  | 100 | 82 | 5 | 4 | 55 | -15 | -0.23 | 1.7 | 8.51 | 
COc1cc(Nc2c(C#N)cnc3cc(OCCCN4CCN(C)CC4)c(OC)cc23)c(Cl)cc1Cl [bosutinib] | -7 | 54 | -7 | 92 |  |  |  |  |  | 7 |  | %-inhibition of MARK1 ([8]; 1 µM): 31%
Cc1nc(Nc2ncc(C(=O)Nc3c(C)cccc3Cl)s2)cc(N2CCN(CCO)CC2)n1 [dasatinib] | 1.18 |  |  |  |  |  |  |  | -7.61 |  |  | 
CO[C@H]1C[C@@H]2CC[C@@H](C)[C@@](O)(O2)C(=O)C(=O)N2CCCC[C@H]2C(=O)O[C@H]([C@H](C)C[C@@H]2CC[C@@H](OC(=O)C(C)(CO)CO)[C@H](OC)C2)CC(=O)[C@H](C)/C=C(\C)[C@@H](O)[C@@H](OC)C(=O)[C@H](C)C[C@H](C)/C=C/C=C/C=C/1C [temsirolimus] | -4 | -6 | -5 | -3 | -2.55 | -0.859 | -7 | -5 | -4 | -4.27 | -5.47 | 
C#Cc1cccc(Nc2ncnc3cc(OCCOC)c(OCCOC)cc23)c1 [erlotinib] |  |  |  |  |  |  |  |  |  |  |  | %-inhibition of MARK3 ([6]; 1 µM): 9%; %-inhibition, BMX ([7]; 1 µM): 17%; %-inhibition of MARK1 ([8]; 1 µM): 11%; %-inhibition of SGK3 ([1]; 1 µM): 8%; %-inhibition, CaMK2δ ([9]; 1 µM): -11%; %-inhibition of PKCα ([2]; 1 µM): 8%; %-inhibition of LIMK1 ([3]; 1 µM): 0.0961%; %-inhibition of FGR ([4]; 1 µM): 29%; %-inhibition of KIT(T670I) ([10]; 1 µM): 14%; %-inhibition, CK1δ ([11]; 1 µM): -4%; %-inhibition of FGFR3(K650E) ([5]; 1 µM): 80%
CCCS(=O)(=O)Nc1ccc(F)c(C(=O)c2c[nH]c3ncc(-c4ccc(Cl)cc4)cc23)c1F [vemurafenib] | -2.38 | -3.61 | 45 | 93 | 6.55 | -0.226 | 24 | -9 | -0.235 | 5.29 | -3 | 
N#CC[C@H](C1CCCC1)n1cc(-c2ncnc3[nH]ccc23)cn1 [ruxolitinib] | -5 | 8 | 60 |  | 16 |  | 6.6 |  | 81 | -0.512 | 12 | %-inhibition of FGR ([4]; 1 µM): 10%
CC(=O)Nc1cccc(-n2c(=O)n(C3CC3)c(=O)c3c(Nc4ccc(I)cc4F)n(C)c(=O)c(C)c32)c1 [trametinib] | 0.769 | -5 | -1.84 | -9 | -1.07 | -3.21 | -3.22 | -17 | -2.19 | -3 | 0.365 | 
COc1cc2c(Nc3ccc(Br)cc3F)ncnc2cc1OCC1CCN(C)CC1 [vandetanib] | -8 | -0.27 | 12 | 86 |  | 4 | 18 | -14 | 10 |  | 6 | 
CCN(CC)CCNC(=O)c1c(C)[nH]c(/C=C2\C(=O)Nc3ccc(F)cc32)c1C [sunitinib] |  |  |  |  | 96 |  |  |  |  |  | 32 | 
O=S(=O)(c1cccc2cnccc12)N1CCCNCC1 [fasudil] | 7 |  | -7 | -4.71 | -0.641 | 13 | -4 | -9 | 3.46 | 0.568 | -3.4 | 
C[C@@H](Oc1cc(-c2cnn(C3CCNCC3)c2)cnc1N)c1c(Cl)ccc(F)c1Cl [crizotinib] | -3 | -8.47 | 94 | 70 | 52 | 41 |  | 27 | 4 | 64 | 9 | 
Cc1cn(-c2cc(NC(=O)c3ccc(C)c(Nc4nccc(-c5cccnc5)n4)c3)cc(C(F)(F)F)c2)cn1 [nilotinib] | 15 | 6.55 | -18 | 55 | -37 | 11 |  | 12 |  |  | -17 | %-inhibition, CaMK2δ ([9]; 1 µM): 1.2%; %-inhibition of KIT(T670I) ([10]; 1 µM): 18%
Cc1ccc(Nc2nccc(N(C)c3ccc4c(C)n(C)nc4c3)n2)cc1S(N)(=O)=O [pazopanib] | -3.17 | 6 |  | 86 |  | 4.45 | 24 | 2.19 | 1.54 |  | 1.13 | %-inhibition of KIT(T670I) ([10]; 1 µM): 68%
